Data from PMC9734143, “An efficient human stem cells derived cardiotoxicity testing platform for testing oncotherapeutic analogues of quercetin and cinnamic acid” (Scientific Reports, 2022).

What was measured:
[1] = tested on: Vero, a non-cancerous cell line; parameters: method as in PMID 25824412, PMID 30687400; conditions: read-out: IC50 in Vero cells; cited from earlier work
[2] = tested on: WJMSC-derived cardiomyocytes (WJCM); test: Intracellular ROS assay in WJCM; format: cell-based, human; conditions: 24 h; analogues at Vero IC50 concentration
Procedure: (§1) Generation of ROS was detected using Fluorometric intracellular ROS kit (Sigma Aldrich, MO, USA) as per manufacturer’s protocol. Fluorescence was measured at excitation and emission of 650 nm and 675 nm respectively via multimode plate reader[50],[51].

H9C2 cells [3] = test: MTT cell viability assay in H9C2 cells; format: cell-based, rat; conditions: 24 h, analogues at Vero IC50 concentration
Procedure: (§2) Similarly, the toxicity of these compounds in terms of the viability of cells was estimated by using the MTT assay and cell counting kit-8 (CCK-8) assay. For MTT assay, after 24 h of treatments, MTT (5 mg/ml of PBS; HiMedia, India) was added, and cells were incubated for 2 h at 37 °C. The formazan crystals that were formed after the incubation were dissolved using dimethyl sulfoxide (DMSO). For the CCK-8 assay, 10 μL of CCK-8 solution (Boster Biological Technology, Pleasanton, CA, USA) was added to each well and incubated for 2 h at 37 °C. The absorbance for MTT and CCK-8 assay was measured at 570 nm and 450 nm respectively using the EnSight™ Multimode plate reader (Perkin Elmer, MA, USA)[49],[50].

H9C2 cells [4] = test: Intracellular ROS assay in H9C2 cells; format: cell-based, rat; conditions: 24 h; analogues at Vero IC50 concentration
Procedure: as §1

[5] = tested on: cardiomyocytes (WJCM and H9C2 cells); test: Cardiotoxicity across parameters as summarised in the discussion (WJCM and H9C2 cells); format: cell-based, human and rat; conditions: for overall cardiotoxicity across the parameters analyzed: analogues at Vero IC50 concentration, 24 h; for active mitochondria status in treated cardiomyocytes / cytotoxic effect against cardiomyocytes by MTT, CCK-8 and LDH assay / intracellular calcium level in treated cardiomyocytes: discussion summary, cell model not specified
Excerpt: We investigated the effects of 3-hydroxyflavone (QMJ-2, QMJ-5, and QMJ-6) and cinnamyl sulfonamide-hydroxamate (NMJ-1, NMJ-2, NMJ-3) in WJCM and H9C2 cells using the concentrations reported for non-cancerous Vero cells. The prerequisite for any synthesized drug molecules is that they should be nontoxic to cardiac cells.

H9C2 cells [6] = test: TMRE mitochondrial membrane potential assay in H9C2 cells; format: cell-based, rat; conditions: 24 h; analogues at Vero IC50 concentration
Procedure: (§3) Mitochondrial membrane potential of the cells after drug treatment was detected using tetramethylrhodamine ethyl ester dye (TMRE; Molecular Probes, CA, USA). The cells were incubated with 0.3 µM TMRE dye and incubated at 37 °C for 30 min in dark. Fluorescence intensity of TMRE was measured at excitation and emission of 549 nm and 574 nm respectively via a multimode plate reader.

[7] = tested on: cardiac markers (NKX2.5, GATA4, Troponin I, Troponin T, MHCα) in WJCM; test: qRT-PCR gene expression of cardiac-specific markers in WJCM; conditions: qRT-PCR; analogues at Vero IC50 concentration
Procedure: Differentiation of WJMSCs was done using a proprietary combination of DNMT and HDAC inhibitors in KO-DMEM/F-12 containing 10% FBS for 48 h. Induction media was replaced with culture media i.e. KO-DMEM/F-12 with 1X GlutaMAX and, 10% FBS after 48 h for 7 days[23].
WJMSC-derived cardiomyocytes (WJCM) and H9C2 were treated with NMJ and QMJ analogues for 24 h. […] To illustrate the toxicity specific to cardiac cells and not a general cytotoxicity, WJMSCs were treated with positive cardiotoxic drugs.
Total ribonucleic acid (RNA) was isolated using RNAiso Plus (TaKaRa, Shiga, Japan) followed by cDNA conversion using PrimeScript™ 1st strand cDNA synthesis kit (TaKaRa, Shiga, Japan). Quantitative reverse transcriptase-polymerase chain reaction (qRT-PCR) was performed by using TB Green™ Premix Ex Taq™ II (Tli RNase H Plus; TaKaRa, Shiga, Japan) for cardiac markers in a QuantStudio™ 5 real-time PCR Systems (Applied Biosystems, USA). All the primers were purchased from Sigma Aldrich, Bangalore, India (Table 1). The relative gene expression was calculated using 2^-∆∆CT and GAPDH, a housekeeping gene was used as endogenous control[52],[53].

H9C2 cells [8] = test: Fura-2AM intracellular calcium assay in H9C2 cells; format: cell-based, rat; conditions: 24 h; analogues at Vero IC50 concentration
Procedure: (§4) Intracellular calcium flux was measured using the fluorescent radiometric Ca^2+ indicator, Fura-2 acetoxymethyl ester (Fura-2, AM; Invitrogen, Carlsbad, USA). Briefly, after 24 h of treatment, Fura-2AM (1 μmol/L) was added to cells and incubated for 30 min at 37 °C. The intracellular calcium flux was measured at excitation of 340 nm and 380 nm and emission of 510 nm using a multimode plate reader.

H9C2 cells [9] = test: Griess assay (NO release) in H9C2 cells; format: cell-based, rat; conditions: 24 h; analogues at Vero IC50 concentration
Procedure: (§5) Nitric oxide (NO) release was estimated using the Griess assay. Briefly, after 24 h of drug treatment, Griess reagent (Sigma Aldrich, MO, USA) was added to cells in equal volume and incubated for 30 min in the dark, and absorbance was taken at 540 nm via multimode plate reader.

[10] = tested on: WJMSC-derived cardiomyocytes (WJCM); test: TMRE mitochondrial membrane potential assay in WJCM; format: cell-based, human; conditions: 24 h; analogues at Vero IC50 concentration
Procedure: as §3

H9C2 cells [11] = test: LDH release assay in H9C2 cells; format: cell-based, rat; conditions: 24 h; analogues at Vero IC50 concentration
Procedure: (§6) The experiment was performed as per the manufacturer’s protocol. Absorbance was taken at 490 nm and 680 nm (background signal) using multimode plate reader. LDH activity was calculated by subtracting absorbance taken at 680 nm from 490 nm.

[12] = tested on: WJMSC-derived cardiomyocytes (WJCM); test: Fura-2AM intracellular calcium assay in WJCM; format: cell-based, human; conditions: 24 h; analogues at Vero IC50 concentration
Procedure: as §4

[13] = tested on: WJMSC-derived cardiomyocytes (WJCM); test: MTT and CCK-8 cell viability assays in WJCM; format: cell-based, human; conditions: 24 h; analogues at Vero IC50 concentration; Dox 1 µM
Procedure: as §2

[14] = tested on: WJMSC-derived cardiomyocytes (WJCM); test: LDH release assay in WJCM; format: cell-based, human; conditions: 24 h; analogues at Vero IC50 concentration
Procedure: as §6

[15] = tested on: WJMSC-derived cardiomyocytes (WJCM); test: Griess assay (NO release) in WJCM; format: cell-based, human; conditions: 24 h
Procedure: as §5

SMILES | IC50 [1] [µM] | ROS activity in WJCM [2] | viability of H9C2 cells (MTT), result in words (H9C2 cells [3]) | ROS activity in H9C2 cells (H9C2 cells [4]) | overall cardiotoxicity across the parameters analyzed [5] | active mitochondria status in treated cardiomyocytes [5] | cytotoxic effect against cardiomyocytes by MTT, CCK-8 and LDH assay [5] | intracellular calcium level in treated cardiomyocytes [5] | mitochondrial membrane potential in H9C2 cells (TMRE) (H9C2 cells [6]) | GATA4 gene expression in WJCM [7] | MHCα gene expression in WJCM [7] | NKX2.5 gene expression in WJCM [7] | Troponin I gene expression in WJCM [7] | Troponin T gene expression in WJCM, increase [7] | intracellular Ca2+ accumulation in H9C2 cells (Fura-2AM) (H9C2 cells [8]) | NO level in H9C2 cells (Griess) (H9C2 cells [9]) | LDH release in H9C2 cells (H9C2 cells [11]) | intracellular Ca2+ accumulation in WJCM (Fura-2AM) [12] | toxicity / cell viability in WJCM (MTT, CCK-8), result in words [13] | LDH release in WJCM [14] | other results
COc1ccc2c(=O)c(O)c(-c3ccc(C)cc3)oc2c1 [QMJ-6, 3-Hydroxy-7-methoxy-2-(4-methylphenyl)-4H-1-benzopyran-4-one] | 153 | lowered ROS activity | increase in viability | lowered ROS activity | do not display significant cardiotoxicity | remains unaffected | no cytotoxic effect | remained low | increased mitochondrial membrane potential | marked upregulation | marked upregulation | significant increase | marked upregulation | 8–10 fold | decrease in Ca^2+ accumulation | elevated NO levels | no to little change | decrease in Ca^2+ accumulation | less toxic | no to little change | mitochondrial membrane potential in WJCM (TMRE) [10]: increased mitochondrial membrane potential
O=C(/C=C/c1ccc(S(=O)(=O)NCCc2cccs2)cc1)NO [NMJ-2] | 8.2 | lowered ROS activity | – | – | do not display significant cardiotoxicity | remains unaffected | no cytotoxic effect | remained low | increased mitochondrial membrane potential | marked upregulation | marked upregulation | significant increase | marked upregulation | – | decrease in Ca^2+ accumulation | elevated NO levels | increase in LDH | decrease in Ca^2+ accumulation | less toxic | increase in LDH | NO level in WJCM (Griess), result in words ([15]; analogues at Vero IC50 concentration): elevated NO levels; Troponin T gene expression in WJCM, result in words [7]: milder increase
O=C(/C=C/c1ccc(S(=O)(=O)NCc2ccco2)cc1)NO [NMJ-3] | 15.1 | lowered ROS activity | increase in viability | lowered ROS activity | do not display significant cardiotoxicity | remains unaffected | no cytotoxic effect | remained low | increased mitochondrial membrane potential | marked upregulation | marked upregulation | – | marked upregulation | 8–10 fold | decrease in Ca^2+ accumulation | – | no to little change | decrease in Ca^2+ accumulation | less toxic | no to little change | decrease of NO level in WJCM (Griess) ([15]; NMJ-3 at 15.1 µM): 12%; decrease in viability of H9C2 cells (MTT) (H9C2 cells [3]; Dox 1 µM): 10–20%; mitochondrial membrane potential in WJCM (TMRE) [10]: increased mitochondrial membrane potential
